Patent US8841087B2 (priority 2008, dated 2014)

Tested on: clinical strains of Mycobacterium tuberculosis
Assay: Reference phenotypic test of antibiotic sensitivity in solid medium
Type: cell-based
Details: Mycobacterium tuberculosis, read-out: minimum inhibitory concentration

In the case of `CO[C@H]1/C=C/O[C@@]2(C)Oc3c(C)c(O)c4c(O)c(c(/C=N/N5CCN(C)CC5)c(O)c4c3C2=O)NC(=O)/C(C)=C\C=C\[C@H](C)[C@H](O)[C@@H](C)[C@@H](O)[C@@H](C)[C@H](OC(C)=O)[C@@H]1C` [rifampicin], the MIC is reported as > 1 µg/mL.
